According to US5248680A, “Zwitterionic compounds and their n-halo derivatives for use in the treatment of clinical conditions” (Bloomfield D.A., priority 1990, dated 1993):
Read-outs that look alike come from different tables or passages of the source.

What was measured:
neutrophils [1] = assay: Leukotriene B4 in supernatants of stimulated neutrophils; format: cell-based, human; conditions: 10 mM HEPES, mean ± S.E.M.; for activity at 10000 µM: Homo sapiens, Neutrophil, read-out: Leukotriene B4 production by neutrophils
Description: (§1) Patients were selected with mild to moderate plaque-type psoriasis on the basis of clinical and histological evidence of disease. Normal volunteers were selected from laboratory personnel without personal or family history of inflammatory disease. Disease control groups included: a) patients with eczema, acne and dermatitis herpetiformis; and b) patients with Crohn's disease and ulcerative colitis.
(§2) Blood samples from each subject were drawn into sodium heparin Vacutainers® (Vacutainer is a Trade Mark). The inflammatory cells (neutrophils) were isolated by dextran sedimentation and FICOLL-PAQUE®(FICOLL-PLAQUE is a Trade Mark) gradient centrifugation. Viability and purity were assessed by fluorescence microscopy, using ethidium bromide and acridine orange staining.
(§3) It was therefore proposed to test the hypothesis that HEPES could inactivate leukotriene B4 by indirect stimulation of MPO leading to increased production of hypochlorous acid from cellular hydrogen peroxide.
For the methodology used in the in vitro studies hereinafter described reference should be made to McLoughlin, D. M. et al. Biochem. Soc. Trans. (1991) 19:73-78 hereby incorporated by reference, except where otherwise stated.

neutrophils [2] = assay: Hypochlorous acid production by neutrophils; format: cell-based; conditions: Homo sapiens, Neutrophil, 10 mM HEPES, mean ± S.E.M.
Description: as §1, §2

myeloperoxidase [3] = assay: Binding of zwitterion to myeloperoxidase (preliminary studies)
neutrophils [4] = assay: Degranulation of lysosomal enzymes by neutrophils stimulated with calcium ionophore; format: cell-based, human; conditions: for activity at 10000 µM: Homo sapiens, Neutrophil, 10 mM HEPES, mean
Description: as §1, §2
Stimulation of the inflammatory process in neutrophils, not only activates the respiratory burst, but as a consequence, is also associated with release of lysosomal enzymes from the cells in a process called degranulation. Degranulation of lysosomal enzymes was stimulated in neutrophils from each group of subjects, using calcium ionophore as inflammatory stimulant.

[5] = test system: peripheral blood neutrophils; assay: Chemiluminescence (reactive oxidant production) of peripheral blood neutrophils stimulated with calcium ionophore; format: cell-based; conditions: Homo sapiens, Neutrophil, 10 mM HEPES, mean ± S.E.M., read-out: Chemiluminesence production by neutrophils
Description: Patients were selected with mild to moderate plaque-type psoriasis on the basis of clinical and histological evidence of disease. Normal volunteers were selected from laboratory personnel without personal or family history of inflammatory disease. Disease control groups included: a) patients with eczema, acne and dermatitis herpetiformis; and b) patients with Crohn's disease and ulcerative colitis. Blood samples from each subject were drawn into sodium heparin Vacutainers® (Vacutainer is a Trade Mark). The inflammatory cells (neutrophils) were isolated by dextran sedimentation and FICOLL-PAQUE®(FICOLL-PLAQUE is a Trade Mark) gradient centrifugation. Viability and purity were assessed by fluorescence microscopy, using ethidium bromide and acridine orange staining. […] Chemiluminescence activity of the peripheral blood neutrophils was tested using the method of Bloomfield, F. J. and Young, M. M. (Inflammation, (1982) 6, 257, hereby incorporated by reference), using calcium ionophore (2μ Molar) as stimulant instead of opsonized zymosan. Chemiluminescence is a measure of the production of reactive oxidants by neutrophils in response to an inflammatory stimulus. It was observed that there was significant reduction in chemiluminescence activity by neutrophils in the taurine-treated and HEPES-treated cells compared to control cells in all groups.

monocytes = assay: Leukotriene B4 in stimulated monocytes; format: cell-based, human; conditions: preincubation with 10 mM HEPES or 40 mM taurine; data not shown
Description: as §3

catalase = assay: Catalase activity of neutrophils after preincubation; format: cell-based, human; conditions: neutrophils preincubated with HEPES or taurine; data not shown
[6] = test system: carrageenan induced paw oedema; assay: Carrageenan-induced paw oedema in rats; format: in vivo, rat
Description: The studies were conducted on inbred Wistar strain albino rats (120-180 g) of either sex. The rats were housed in colony cages at an ambient temperature of 25°±2° C. and fed on standard pellet chow. The rats were anaesthetized using pentobarbitone sodium, their hind paws were marked and the volume measured. […] The control animals were injected with 10 μl of 0.9% saline solution. […] One hour following the carrageenan injection the hind paw volume was measured again. A 5 ml blood sample was taken from each animal into sodium heparin Vacutainers. Chemiluminescence activity was assayed in the PBMC isolated from each animal.
These studies were also conducted on inbred Wistar strain albino rats (120-180 g) of either sex. The rats were anaesthetized using pentobarbitone sodium prior to marking each hind paw and measuring paw volume. […] The control animals received 0.5 ml of 0.9% NaCl subcutaneously. 30 min after the injections were administered, paw oedema was induced using carrageenan. One hour following carrageenan administration the hind paw volume was measured. A 5 ml blood sample was taken from each animal into sodium heparin Vacutainers and used for chemiluminescence measurement.

myeloperoxidase [7] = assay: Myeloperoxidase activity of neutrophils after preincubation with zwitterion; format: cell-based, human; conditions: 10 mM HEPES, mean ± S.E.M.
Description: as §1, §2

[8] = Skin penetration and percutaneous absorption of 14C-HEPES after a single topical dose; format: in vivo, human; conditions: for Mean urinary excretion of radioactivity: mean (S.D.), up to 120 hours
Description: The skin penetration and percutaneous absorption of radioactivity following topical administration of a single does of ^14 C-HEPES (approximately 100 mg 5% cream containing 70 uCi ^14 C) was investigated in two groups of six healthy male volunteers. The dose was applied to intact skin in one group and to skin stripped 10 times with scotch tape in the second group. The unabsorbed material was removed after 12 hours and the area of application was stripped 10 times in order to determine skin penetration. Blood, urine and faeces samples were collected up to 120 hours after dose application for assessment of total radioactivity.

[9] = Normal + iodide (1 mM potassium iodide)

O=S(=O)(O)CCN1CCN(CCO)CC1 [HEPES, N-2-hydroxyethylpiperazine-N'-2-ethanesulphonic acid]
Leukotriene B4 production by neutrophils (neutrophils [1]; [9]): no measurable leukotriene B4
activity at 10000 µM (neutrophils [1]; [9]): 0%
activity at 10000 µM (neutrophils [1]; Normal): 55.8 ± 8.9%
activity at 10000 µM (neutrophils [1]; Psoriasis): 22.4 ± 6.62%
activity at 10000 µM (neutrophils [1]; disease controls (a)): 24.9 ± 8.99%
activity at 10000 µM (neutrophils [1]; disease controls (b)): 16.7 ± 6.42%
activity at 10000 µM (neutrophils [2]; Normal): 211 ± 12.5%
activity at 10000 µM (neutrophils [2]; Psoriasis): 193 ± 10.7%
activity at 10000 µM (neutrophils [2]; disease controls (a)): 152 ± 8.3%
binding to the enzyme (MPO) (myeloperoxidase [3]): did not bind to the enzyme
activity at 10000 µM (neutrophils [4]; Normal): 104%
activity at 10000 µM (neutrophils [4]; Psoriasis): 104%
activity at 10000 µM (neutrophils [4]; disease controls (a)): 87.2%
degranulation by preincubated neutrophils compared to control cells (neutrophils [4]; result in words, taurine data not shown): no difference in degranulation
activity at 10000 µM ([5]; Normal): 28.8 ± 4.24%
activity at 10000 µM ([5]; Psoriasis): 26.9 ± 3.25%
activity at 10000 µM ([5]; disease controls (a) eczema, acne, dermatitis herpetiformis): 28.8 ± 3.84%
activity at 10000 µM ([5]; disease controls (b) Crohn's disease, ulcerative colitis): 25.4 ± 6.4%
reduction of leukotriene B4 in monocytes (monocytes): also demonstrated in monocytes
effect on catalase activity (catalase): no effect on catalase activity
percentage increase in paw volume ([6]; I.P. 500 μg HEPES, 1 h after carrageenan, mean ± S.E.M.): 23 ± 4 percentage increase in paw volume
reduction in paw oedema ([6]; intraperitoneal 500 μg HEPES, versus control): 50%
Myeloperoxidase activity of neutrophils (myeloperoxidase [7]; Normal): 228 ± 25.4 percentage activity of control
Myeloperoxidase activity of neutrophils (myeloperoxidase [7]; Psoriasis): 247 ± 30.1 percentage activity of control
Myeloperoxidase activity of neutrophils (myeloperoxidase [7]; disease controls (a)): 198 ± 17.1 percentage activity of control
Myeloperoxidase activity of neutrophils (myeloperoxidase [7]; disease controls (b)): 211 ± 56.4 percentage activity of control
tolerability of single topical dose ([8]; intact and stripped skin groups): well tolerated
Mean urinary excretion of radioactivity ([8]; intact skin group): 0.07+0.08% of the applied dose
radioactivity in 48-72 hour faecal sample ([8]; one subject of the stripped skin group): 0.11 % of the applied dose
abnormalities in biochemistry, haematology and urinalysis screens ([8]; single topical dose): not considered to be related
radioactivity in plasma or faecal samples ([8]; single topical dose approx. 100 mg 5% cream, intact and stripped skin groups, samples up to 120 hours): No radioactivity was detected
Mean urinary excretion of radioactivity ([8]; stripped skin group): 0.20±0.22% of the applied dose
